Measured values published in US12037583B2, “Compositions and methods for immunooncology” (Novartis AG, priority 2015, dated 2024).

System: CIITA
Test: NGS editing and frameshift edit of CIITA by dgRNA in HEK293 cells expressing Cas9
Format: cell-based, human
Conditions: HEK293 cells stably expressing Cas9, dgRNA to CIITA; for Avg. % Edit: N = 3; for Avg. % FS: frameshift edit
Experimental: Editing of CIITA with dgRNAs targeted to the CIITA gene were assayed in HEK293 cells engineered to express Cas9, as described above in Example 1.

Substance	Avg. % Edit	Avg. % FS
CR002973 (guide CAUCGCUGUUAAGAAGCUCC; targeting domain within dual guide RNA, chemistry not given here, further chemistry not given here; listed as Homo sapiens)	30.60%	23.55%
CR002974 (guide AGAAGUGGUAGAGGCACAGG; targeting domain within dual guide RNA, chemistry not given here, further chemistry not given here; listed as Homo sapiens)	8.99%	6.92%
CR002975 (guide UAGAAGUGGUAGAGGCACAG; targeting domain within dual guide RNA, chemistry not given here, further chemistry not given here; listed as Homo sapiens)	19.31%	15.82%
CR002977 (guide CAUAGAAGUGGUAGAGGCAC; targeting domain within dual guide RNA, chemistry not given here, further chemistry not given here; listed as Homo sapiens)	19.11%	12.99%
CR002979 (guide CUACCACUUCUAUGACCAGA; targeting domain within dual guide RNA, chemistry not given here, further chemistry not given here; listed as Homo sapiens)	28.91%	23.07%
CR002981 (guide CUUCUAUGACCAGAUGGACC; targeting domain within dual guide RNA, chemistry not given here, further chemistry not given here; listed as Homo sapiens)	36.28%	29.98%
CR002982 (guide UAUGACCAGAUGGACCUGGC; targeting domain within dual guide RNA, chemistry not given here, further chemistry not given here; listed as Homo sapiens)	10.45%	9.05%
CR002983 (guide CUUCUCCAGCCAGGUCCAUC; targeting domain within dual guide RNA, chemistry not given here, further chemistry not given here; listed as Homo sapiens)	35.90%	33.83%
CR002985 (guide CAGUUGAUGGUGUCUGUGUC; targeting domain within dual guide RNA, chemistry not given here, further chemistry not given here; listed as Homo sapiens)	32.99%	29.52%
CR002986 (guide GCAGUUGAUGGUGUCUGUGU; targeting domain within dual guide RNA, chemistry not given here, further chemistry not given here; listed as Homo sapiens)	1.77%	1.48%
CR002989 (guide CACACAACAGCCUGCUGAAC; targeting domain within dual guide RNA, chemistry not given here, further chemistry not given here; listed as Homo sapiens)	27.38%	8.45%
CR002996 (guide AGGUGCUUCCUCACCGAUAU; targeting domain within dual guide RNA, chemistry not given here, further chemistry not given here; listed as Homo sapiens)	23.91%	17.83%
CR002998 (guide GGGAGUCCUGGAAGACAUAC; targeting domain within dual guide RNA, chemistry not given here, further chemistry not given here; listed as Homo sapiens)	4.95%	4.84%
